Earlier results in patent US20080213362A1, “COMPOSITIONS AND METHODS USING TORSEMIDE” (priority 2007, published 2008).

Key:
[1] = diabetic or pre-diabetic patient, even during treatment with an anti-diabetic agent
[2] = 2.5 mg once daily

Cc1cccc(Nc2ccncc2S(=O)(=O)NC(=O)NC(C)C)c1 [torsemide]
effect on blood sugar levels [1]: worsen blood sugar levels
anti-hypertensive effects [2]: statistically significant anti-hypertensive effects
